From ChEMBL document CHEMBL1201862, “PubChem BioAssay data set” (2004)
Active and inactive are the calls of the source.

What was measured:
[1] = test system: Escherichia coli; test: microbe, parasite or virus in culture
[2] = biological target: Low molecular weight phosphotyrosine protein phosphatase (Homo sapiens, UniProt P24666); type: functional; conditions: read-out: IC50_Mean;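 also: Dose-response confirmation assay measuring inhibition of LMPTP enzyme activity by fluorescence intensity read-out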
[3] = biological target: T1, Melanocortin receptor 4 (Homo sapiens, UniProt P32245); type: functional, cell-based;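 also: Cell-based assay with luminescence read-out, confirmatory dose-response testing for agonist activity of biased ligands at MC4R; human U2OS cells with tagged receptor and beta-arrestin; potency of agonists that increase receptor coupling to beta-arrestin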
[4] = biological target: Prothrombin (Bos taurus, UniProt P00735); test: thrombin protease inhibitors – biochemical, fluorescence polarization, uHTS hits, dose response (AID 602369); type: functional
[5] = biological target: 26S proteasome non-ATPase regulatory subunit 14 (Homo sapiens, UniProt O00487); test: inhibition of proteasome subunit RPN11 – biochemical, fluorescence polarization, uHTS hits, confirmation (AID 602368); type: functional
[6] = biological target: 72 kDa type IV collagenase (Homo sapiens, UniProt P08253); test: Dose Response validation of uHTS RPN11 inhibitor hits using a MMP-2 Fluorescence assay.; type: functional
[7] = biological target: T2, Carboxy-terminal domain RNA polymerase II polypeptide A small phosphatase 1 (Homo sapiens, UniProt Q9GZU7); test: CTDSP1 inhibitors, concentration-response, biochemical, absorbance readout, ultra-high-throughput screen actives (AID 540297); type: functional
T2 sequence (Q9GZU7 whole entry): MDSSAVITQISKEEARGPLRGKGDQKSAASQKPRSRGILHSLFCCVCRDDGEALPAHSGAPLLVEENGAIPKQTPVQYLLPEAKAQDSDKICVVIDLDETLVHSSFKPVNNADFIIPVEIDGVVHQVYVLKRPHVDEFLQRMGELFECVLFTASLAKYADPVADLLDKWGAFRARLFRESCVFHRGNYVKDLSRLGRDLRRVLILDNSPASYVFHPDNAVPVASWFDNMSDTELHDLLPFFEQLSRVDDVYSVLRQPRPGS

[8] = biological target: T1, Melanocortin receptor 4; test: inhibitors of MC4R cAMP signaling – cell-based, TR-FRET, biased antagonists, dose response (AID 602298); type: functional;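 also: antagonist potency against agonist-stimulated cAMP production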
[9] = cAMP pathway inhibition in counterscreen cell line – TR-FRET cAMP detection, counter-screen for MC4R biased antagonist project, dose response (AID 602305); type: functional, cell-based;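 also: U2OS cells stimulated with forskolin near its EC80 as the cAMP inducer; potency is for inhibition of forskolin-stimulated cAMP signaling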
[10] = biological target: T3, Streptokinase A (Streptococcus pyogenes serotype M1, UniProt P10520); test: viability-normalized secreted streptokinase activity reduction – plasminogen activation absorbance, OD405, dose response (AID 1914); type: functional, Streptococcus pyogenes M1 GAS;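 also: secreted streptokinase activity via plasminogen activation per viability signal from cell pellet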
T3 sequence (P10520 whole entry): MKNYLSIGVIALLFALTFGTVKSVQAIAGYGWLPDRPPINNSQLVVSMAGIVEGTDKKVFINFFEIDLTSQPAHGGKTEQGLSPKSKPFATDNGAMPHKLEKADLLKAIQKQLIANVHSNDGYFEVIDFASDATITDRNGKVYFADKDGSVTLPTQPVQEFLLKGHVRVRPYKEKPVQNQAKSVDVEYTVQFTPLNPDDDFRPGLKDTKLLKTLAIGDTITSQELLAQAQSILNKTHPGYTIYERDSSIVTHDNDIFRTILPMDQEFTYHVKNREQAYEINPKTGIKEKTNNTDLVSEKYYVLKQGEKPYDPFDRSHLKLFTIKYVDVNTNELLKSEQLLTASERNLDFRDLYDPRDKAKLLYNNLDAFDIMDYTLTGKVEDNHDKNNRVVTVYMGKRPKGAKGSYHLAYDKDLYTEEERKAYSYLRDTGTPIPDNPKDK

[11] = test system: Streptococcus; test: GAS UMAA2166 growth inhibition – luminescence, BacTiterGlo, counter-screen for streptokinase expression inhibitor project, dose response (AID 1915); type: functional, organism-based; conditions: Streptococcus;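 also: potency for reduction of bacterial viability or growth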
[12] = test system: Streptococcus sp. 'group A'; test: Streptococcus pyogenes SK(-)GAS viability under kanamycin – luminescence, BacTiterGlo, confirmation, counter-screen for streptokinase expression inhibitor project, dose response (AID 1900); type: functional, organism-based; conditions: Streptococcus sp. 'group A'
[13] = biological target: Induced myeloid leukemia cell differentiation protein Mcl-1 (Homo sapiens, UniProt Q07820); type: functional
[14] = biological target: Eukaryotic translation initiation factor 4E (Mus musculus, UniProt P63073); test: blockers of eIF4G binding by eIF4E – biochemical, TR-FRET, dose response (AID 855); type: functional;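 also: potency for disrupting eIF4E binding to eIF4GI seen as loss of FRET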
[15] = biological target: DNA (cytosine-5)-methyltransferase 1 (Homo sapiens, UniProt P26358); test: inhibition of DNA methylation by DNMT1 – biochemical, fluorescent molecular beacon, confirmation (AID 602386); type: functional
[16] = biological target: Genome polyprotein (dengue virus type 2, UniProt P29990); test: flavivirus cap methylation enzyme inhibition – biochemical, confirmation dose response, primary screen (AID 588689); type: functional
[17] = biological target: Large T antigen (Simian virus 40, UniProt P03070); type: functional, Betapolyomavirus macacae;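 also: Confirmatory-stage PubChem screen for compounds that inhibit SV40 T antigen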
[18] = biological target: T4, Histone-lysine N-methyltransferase NSD2 (Homo sapiens, UniProt O96028); type: biochemical
T4 sequence (O96028 whole entry): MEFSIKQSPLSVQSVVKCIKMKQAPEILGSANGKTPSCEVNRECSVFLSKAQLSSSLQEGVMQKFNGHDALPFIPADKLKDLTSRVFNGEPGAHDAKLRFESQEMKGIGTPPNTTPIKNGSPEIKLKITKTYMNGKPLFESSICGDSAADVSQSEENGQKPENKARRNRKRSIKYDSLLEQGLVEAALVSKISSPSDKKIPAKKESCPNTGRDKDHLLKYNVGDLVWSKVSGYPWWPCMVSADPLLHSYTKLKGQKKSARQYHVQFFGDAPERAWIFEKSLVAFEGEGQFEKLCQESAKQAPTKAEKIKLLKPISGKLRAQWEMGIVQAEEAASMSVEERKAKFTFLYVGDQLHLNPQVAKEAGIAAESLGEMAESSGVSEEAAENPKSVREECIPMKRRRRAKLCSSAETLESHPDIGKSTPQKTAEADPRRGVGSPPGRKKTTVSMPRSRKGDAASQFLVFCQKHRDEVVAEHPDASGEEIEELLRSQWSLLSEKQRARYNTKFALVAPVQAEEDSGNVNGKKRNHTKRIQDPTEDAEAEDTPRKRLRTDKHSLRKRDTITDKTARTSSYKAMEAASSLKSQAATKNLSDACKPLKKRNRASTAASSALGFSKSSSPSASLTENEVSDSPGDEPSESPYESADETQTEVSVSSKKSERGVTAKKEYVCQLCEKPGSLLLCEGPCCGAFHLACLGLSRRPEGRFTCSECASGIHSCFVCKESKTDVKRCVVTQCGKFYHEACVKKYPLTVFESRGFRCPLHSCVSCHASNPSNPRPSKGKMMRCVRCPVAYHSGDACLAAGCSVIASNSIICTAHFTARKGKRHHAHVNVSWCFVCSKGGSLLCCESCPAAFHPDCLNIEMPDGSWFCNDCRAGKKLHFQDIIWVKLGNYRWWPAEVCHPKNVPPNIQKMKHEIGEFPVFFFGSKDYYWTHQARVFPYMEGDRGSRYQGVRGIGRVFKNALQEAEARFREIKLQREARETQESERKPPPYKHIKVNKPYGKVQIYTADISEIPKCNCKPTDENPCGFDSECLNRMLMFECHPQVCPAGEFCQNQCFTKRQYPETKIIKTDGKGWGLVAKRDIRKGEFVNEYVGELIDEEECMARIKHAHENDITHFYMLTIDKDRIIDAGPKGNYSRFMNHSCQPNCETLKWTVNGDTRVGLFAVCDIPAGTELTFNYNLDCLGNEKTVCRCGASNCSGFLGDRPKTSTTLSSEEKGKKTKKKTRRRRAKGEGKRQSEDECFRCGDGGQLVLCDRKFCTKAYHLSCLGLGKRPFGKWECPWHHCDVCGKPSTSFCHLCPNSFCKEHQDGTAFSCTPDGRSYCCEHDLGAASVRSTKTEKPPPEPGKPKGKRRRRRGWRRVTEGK

[19] = biological target: T5, Ubiquitin-conjugating enzyme E2 N (Homo sapiens, UniProt P61088); type: functional;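 also: Dose-response confirmation in a TR-FRET assay detecting UBC13-driven polyubiquitin chain formation, inhibition measured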
T5 sequence (P61088 whole entry): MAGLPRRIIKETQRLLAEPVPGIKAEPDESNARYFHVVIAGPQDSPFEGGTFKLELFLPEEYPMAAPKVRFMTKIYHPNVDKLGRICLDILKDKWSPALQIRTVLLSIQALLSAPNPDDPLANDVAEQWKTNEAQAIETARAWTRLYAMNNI

[20] = biological target: Aurora kinase A (Homo sapiens, UniProt O14965); type: functional;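 also: value from the Navigating the Kinome kinase panel profiling, panel entry STK6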
[21] = biological target: Aurora kinase B (Homo sapiens, UniProt Q96GD4); type: functional
[22] = biological target: T6, Apoptotic protease-activating factor 1 (Homo sapiens, UniProt O14727); test: SAR analysis of small molecule Activators of Apaf-1 in a Fluorescent assay.; type: functional; conditions: read-out: EC50_Mean;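 also: caspase-3 cleavage of fluorogenic Rh110 DEVD substrate downstream of apoptosome activation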
T6 sequence (O14727 whole entry): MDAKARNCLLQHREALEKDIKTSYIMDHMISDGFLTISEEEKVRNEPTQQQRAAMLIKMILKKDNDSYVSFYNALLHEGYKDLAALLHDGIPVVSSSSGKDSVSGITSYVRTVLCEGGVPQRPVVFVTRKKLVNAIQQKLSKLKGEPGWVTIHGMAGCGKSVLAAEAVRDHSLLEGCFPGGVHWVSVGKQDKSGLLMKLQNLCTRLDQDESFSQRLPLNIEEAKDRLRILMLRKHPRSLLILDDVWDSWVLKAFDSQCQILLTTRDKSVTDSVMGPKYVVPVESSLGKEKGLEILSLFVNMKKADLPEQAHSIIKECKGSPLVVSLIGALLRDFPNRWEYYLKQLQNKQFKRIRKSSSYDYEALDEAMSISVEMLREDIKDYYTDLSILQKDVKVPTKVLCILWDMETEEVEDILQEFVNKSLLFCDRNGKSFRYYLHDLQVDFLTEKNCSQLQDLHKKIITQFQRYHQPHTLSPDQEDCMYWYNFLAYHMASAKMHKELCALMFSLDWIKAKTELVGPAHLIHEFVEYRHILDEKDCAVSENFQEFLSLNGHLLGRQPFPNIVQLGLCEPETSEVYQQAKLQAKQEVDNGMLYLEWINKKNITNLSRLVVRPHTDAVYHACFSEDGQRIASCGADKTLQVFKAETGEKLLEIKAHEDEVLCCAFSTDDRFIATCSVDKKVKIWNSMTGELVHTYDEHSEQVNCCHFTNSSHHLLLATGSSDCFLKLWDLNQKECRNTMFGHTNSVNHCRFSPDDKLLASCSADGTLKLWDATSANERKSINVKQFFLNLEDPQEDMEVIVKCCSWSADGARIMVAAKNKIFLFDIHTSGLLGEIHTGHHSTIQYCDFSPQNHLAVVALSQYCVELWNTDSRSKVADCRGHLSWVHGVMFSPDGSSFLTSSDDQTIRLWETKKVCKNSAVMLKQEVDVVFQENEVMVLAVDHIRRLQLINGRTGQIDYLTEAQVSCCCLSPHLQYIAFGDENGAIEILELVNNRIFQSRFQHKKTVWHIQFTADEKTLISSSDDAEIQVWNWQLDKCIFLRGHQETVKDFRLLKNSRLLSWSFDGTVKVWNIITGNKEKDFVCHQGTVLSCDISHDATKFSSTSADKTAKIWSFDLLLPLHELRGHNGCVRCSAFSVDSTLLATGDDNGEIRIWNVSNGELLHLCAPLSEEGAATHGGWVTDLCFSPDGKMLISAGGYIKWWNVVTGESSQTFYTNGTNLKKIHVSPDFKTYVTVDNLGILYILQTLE

T1 sequence (P32245 whole entry): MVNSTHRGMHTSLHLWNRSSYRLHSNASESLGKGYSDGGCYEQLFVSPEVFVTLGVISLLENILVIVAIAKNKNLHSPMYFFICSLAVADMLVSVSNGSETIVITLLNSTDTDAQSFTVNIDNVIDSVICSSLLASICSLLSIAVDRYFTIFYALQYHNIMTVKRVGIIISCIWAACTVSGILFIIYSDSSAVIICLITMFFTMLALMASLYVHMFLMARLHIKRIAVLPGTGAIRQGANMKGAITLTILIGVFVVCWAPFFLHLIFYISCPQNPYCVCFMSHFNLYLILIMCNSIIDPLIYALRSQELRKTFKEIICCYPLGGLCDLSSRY
Chain of 72 kDa type IV collagenase (P08253 whole entry, the tested form may be a part): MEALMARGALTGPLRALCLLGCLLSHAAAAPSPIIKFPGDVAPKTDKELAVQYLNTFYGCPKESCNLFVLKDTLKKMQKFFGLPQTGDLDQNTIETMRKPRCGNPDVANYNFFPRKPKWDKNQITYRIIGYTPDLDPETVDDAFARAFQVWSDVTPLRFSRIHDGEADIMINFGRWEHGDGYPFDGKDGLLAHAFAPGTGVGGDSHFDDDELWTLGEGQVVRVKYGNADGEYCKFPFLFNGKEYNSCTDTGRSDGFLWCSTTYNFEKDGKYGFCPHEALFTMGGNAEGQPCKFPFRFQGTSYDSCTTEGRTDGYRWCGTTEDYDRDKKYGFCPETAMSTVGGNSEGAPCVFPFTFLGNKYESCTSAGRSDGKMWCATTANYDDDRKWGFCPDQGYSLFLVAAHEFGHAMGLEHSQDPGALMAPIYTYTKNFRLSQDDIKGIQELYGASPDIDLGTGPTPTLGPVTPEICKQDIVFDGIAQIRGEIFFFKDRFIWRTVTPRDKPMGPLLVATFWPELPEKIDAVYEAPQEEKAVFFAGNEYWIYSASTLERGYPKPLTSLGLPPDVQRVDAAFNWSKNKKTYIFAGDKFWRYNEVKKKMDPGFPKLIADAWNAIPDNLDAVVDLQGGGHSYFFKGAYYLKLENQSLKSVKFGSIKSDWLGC
Chain of 26S proteasome non-ATPase regulatory subunit 14 (O00487 whole entry): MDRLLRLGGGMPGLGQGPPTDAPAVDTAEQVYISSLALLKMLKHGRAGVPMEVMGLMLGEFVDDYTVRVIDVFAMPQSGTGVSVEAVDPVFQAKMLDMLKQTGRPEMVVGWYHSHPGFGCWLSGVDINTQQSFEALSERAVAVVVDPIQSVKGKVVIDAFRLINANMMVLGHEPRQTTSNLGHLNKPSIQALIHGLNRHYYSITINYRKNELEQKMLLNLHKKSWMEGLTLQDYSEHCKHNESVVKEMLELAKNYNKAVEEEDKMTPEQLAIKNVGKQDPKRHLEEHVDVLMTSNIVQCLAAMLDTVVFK
Chain of Low molecular weight phosphotyrosine protein phosphatase (P24666 whole entry): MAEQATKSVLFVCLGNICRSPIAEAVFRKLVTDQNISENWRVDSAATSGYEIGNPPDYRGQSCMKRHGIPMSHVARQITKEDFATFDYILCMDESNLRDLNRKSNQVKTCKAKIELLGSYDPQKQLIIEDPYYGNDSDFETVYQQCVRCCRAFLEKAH
Chain of Aurora kinase A (O14965 whole entry): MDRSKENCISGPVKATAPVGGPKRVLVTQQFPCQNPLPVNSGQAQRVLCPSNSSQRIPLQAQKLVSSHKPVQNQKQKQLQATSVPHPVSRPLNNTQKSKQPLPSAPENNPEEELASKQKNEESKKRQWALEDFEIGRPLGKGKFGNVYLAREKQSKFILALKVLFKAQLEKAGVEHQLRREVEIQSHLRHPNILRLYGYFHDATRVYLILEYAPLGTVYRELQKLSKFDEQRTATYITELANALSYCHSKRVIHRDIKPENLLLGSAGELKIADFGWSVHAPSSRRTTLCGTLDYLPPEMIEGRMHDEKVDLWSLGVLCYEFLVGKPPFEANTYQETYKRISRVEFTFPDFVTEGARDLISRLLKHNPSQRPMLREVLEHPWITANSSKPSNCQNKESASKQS
Chain of DNA (cytosine-5)-methyltransferase 1 (P26358 whole entry): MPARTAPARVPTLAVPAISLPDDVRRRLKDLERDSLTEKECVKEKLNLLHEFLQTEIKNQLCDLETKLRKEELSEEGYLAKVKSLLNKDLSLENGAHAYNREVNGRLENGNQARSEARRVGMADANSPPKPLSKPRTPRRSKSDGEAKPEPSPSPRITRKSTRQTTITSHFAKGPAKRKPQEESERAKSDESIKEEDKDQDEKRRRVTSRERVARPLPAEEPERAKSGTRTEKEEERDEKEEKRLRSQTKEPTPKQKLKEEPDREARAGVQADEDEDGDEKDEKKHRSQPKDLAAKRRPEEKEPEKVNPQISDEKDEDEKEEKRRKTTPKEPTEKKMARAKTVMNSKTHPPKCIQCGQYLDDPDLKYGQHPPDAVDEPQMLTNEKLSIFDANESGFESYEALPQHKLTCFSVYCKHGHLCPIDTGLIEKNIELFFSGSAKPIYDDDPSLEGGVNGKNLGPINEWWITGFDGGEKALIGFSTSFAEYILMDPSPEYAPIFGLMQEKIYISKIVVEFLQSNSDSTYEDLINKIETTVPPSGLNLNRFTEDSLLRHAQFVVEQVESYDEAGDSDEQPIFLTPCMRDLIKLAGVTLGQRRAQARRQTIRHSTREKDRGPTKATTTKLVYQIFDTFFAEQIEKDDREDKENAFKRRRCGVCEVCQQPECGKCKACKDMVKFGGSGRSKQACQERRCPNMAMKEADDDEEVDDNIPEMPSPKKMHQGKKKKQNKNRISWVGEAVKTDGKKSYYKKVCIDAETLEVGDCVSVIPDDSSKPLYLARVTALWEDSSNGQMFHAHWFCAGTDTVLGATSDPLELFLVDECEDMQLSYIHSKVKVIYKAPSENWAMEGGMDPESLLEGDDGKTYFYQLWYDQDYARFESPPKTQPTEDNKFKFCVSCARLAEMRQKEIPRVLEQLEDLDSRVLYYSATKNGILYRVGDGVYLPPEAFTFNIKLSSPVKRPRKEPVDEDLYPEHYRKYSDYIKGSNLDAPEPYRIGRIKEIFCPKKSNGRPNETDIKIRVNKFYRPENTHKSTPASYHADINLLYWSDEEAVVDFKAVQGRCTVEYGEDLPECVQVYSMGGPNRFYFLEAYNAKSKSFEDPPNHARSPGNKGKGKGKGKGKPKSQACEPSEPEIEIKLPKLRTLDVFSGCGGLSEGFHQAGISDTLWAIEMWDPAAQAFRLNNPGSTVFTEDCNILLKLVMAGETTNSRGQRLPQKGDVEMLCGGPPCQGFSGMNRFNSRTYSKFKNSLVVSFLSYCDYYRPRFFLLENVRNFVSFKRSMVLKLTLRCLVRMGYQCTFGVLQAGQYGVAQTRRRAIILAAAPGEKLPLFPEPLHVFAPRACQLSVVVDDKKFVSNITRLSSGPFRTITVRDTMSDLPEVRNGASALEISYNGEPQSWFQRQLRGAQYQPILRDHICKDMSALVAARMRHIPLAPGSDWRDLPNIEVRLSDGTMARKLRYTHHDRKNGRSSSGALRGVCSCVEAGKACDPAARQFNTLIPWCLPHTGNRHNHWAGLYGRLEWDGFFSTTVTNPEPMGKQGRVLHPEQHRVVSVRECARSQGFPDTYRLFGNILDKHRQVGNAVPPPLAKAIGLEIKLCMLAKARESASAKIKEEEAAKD
Chain of Large T antigen (P03070 whole entry): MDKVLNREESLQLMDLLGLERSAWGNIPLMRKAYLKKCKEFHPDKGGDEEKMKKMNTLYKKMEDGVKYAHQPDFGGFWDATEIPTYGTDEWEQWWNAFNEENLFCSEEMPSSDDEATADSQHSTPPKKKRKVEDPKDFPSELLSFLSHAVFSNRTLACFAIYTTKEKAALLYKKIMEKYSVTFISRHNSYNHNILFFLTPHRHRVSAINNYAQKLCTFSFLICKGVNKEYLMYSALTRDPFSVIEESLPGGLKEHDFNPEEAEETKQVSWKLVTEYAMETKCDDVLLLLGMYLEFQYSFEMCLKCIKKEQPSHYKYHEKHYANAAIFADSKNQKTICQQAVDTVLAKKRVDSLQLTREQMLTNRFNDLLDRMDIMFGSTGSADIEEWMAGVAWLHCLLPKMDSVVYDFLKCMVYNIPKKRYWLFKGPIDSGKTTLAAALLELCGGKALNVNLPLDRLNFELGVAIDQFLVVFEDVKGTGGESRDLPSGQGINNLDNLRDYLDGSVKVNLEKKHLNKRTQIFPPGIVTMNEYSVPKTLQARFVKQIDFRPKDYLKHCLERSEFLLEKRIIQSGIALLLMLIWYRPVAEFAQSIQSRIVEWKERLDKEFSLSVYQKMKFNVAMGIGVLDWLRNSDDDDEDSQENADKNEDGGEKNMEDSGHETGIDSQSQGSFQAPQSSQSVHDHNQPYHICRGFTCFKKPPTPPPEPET
Chain of Eukaryotic translation initiation factor 4E (P63073 whole entry): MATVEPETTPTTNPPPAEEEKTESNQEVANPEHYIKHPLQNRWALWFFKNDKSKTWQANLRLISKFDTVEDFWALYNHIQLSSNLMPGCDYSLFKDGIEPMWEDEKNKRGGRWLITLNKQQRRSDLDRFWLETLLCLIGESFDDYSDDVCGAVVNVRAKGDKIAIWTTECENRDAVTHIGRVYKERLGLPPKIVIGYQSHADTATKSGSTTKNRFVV
Chain of Aurora kinase B (Q96GD4 whole entry): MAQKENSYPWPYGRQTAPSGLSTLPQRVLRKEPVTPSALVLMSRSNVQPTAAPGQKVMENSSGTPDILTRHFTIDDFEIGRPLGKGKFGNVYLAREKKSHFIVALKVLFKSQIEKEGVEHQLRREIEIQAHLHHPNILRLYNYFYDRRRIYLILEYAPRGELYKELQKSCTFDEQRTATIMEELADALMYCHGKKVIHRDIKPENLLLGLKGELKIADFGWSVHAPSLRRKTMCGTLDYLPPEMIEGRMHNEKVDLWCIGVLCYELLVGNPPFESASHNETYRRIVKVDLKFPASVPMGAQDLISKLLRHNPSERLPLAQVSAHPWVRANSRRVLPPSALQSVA

With `CCn1cc(C(=O)O)c(=O)c2cc(F)c(N3CCN(C(=S)NC(=O)c4ccccc4C)CC3)cc21` the AC50 [1] was 8.2 µM (active) and the IC50 [2] was 7.19 µM (active).
For `O=C(CSc1ccccc1)Nc1nnc(/C=C/c2ccccc2)s1`, the EC50 [3] was > 89.2 µM (inactive).
In the case of `Cc1ccc(-n2nnc3c(=O)n(CC(=O)NCc4ccccc4)cnc32)cc1`, the IC50 [4] is reported as > 100 µM (inactive), the IC50 [5] is reported as 24.8 µM (active) and the IC50 [6] is reported as 12.7 µM (active). The IC50 [7] was 5.33 µM (active).
With `COc1ccc(-c2oc3ccc(N4CCOCC4)cc3c2C#CC2(O)CCCCC2)cc1` the IC50 [8] was > 64.6 µM (inactive), the IC50 [9] was > 64.6 µM (inactive) and the EC50 [10] was > 150 µM (not active). For the same compound, the EC50 [11] was 8.25 µM (active) and the EC50 [12] was 3.68 µM (active).
With `O=C1NN(c2ccc(Cl)cc2)C(=O)/C1=C\c1ccc(-c2cccc(C(=O)O)c2)o1` the IC50 [13] was 3.21 µM (active), the IC50 [14] was 50 µM (inactive) and the IC50 [15] was 7.39 µM (active). The IC50 [16] was 77.3 µM (active), the IC50 [4] was 19.8 µM (active) and the IC50 [5] was 10.9 µM (active). The IC50 [6] was 56.7 µM (active), the IC50 [17] was 27.1 µM (active) and the AC50 [18] was > 20 µM (inactive).
For `CC(C)[C@H](CN1CCC[C@H]1CN1C(N)=NC[C@H]1C(C)C)N1C[C@@H](Cc2ccccc2)N(CCCC2CCCC2)C1=N`, the IC50 [19] was > 20 µM (inactive), the IC50 [8] was 17.7 µM (inactive) and the IC50 [9] was > 64.5 µM (inactive).
With `COCCOC1CCC(n2nc(-c3ccc(Nc4nc5cc(Cl)cc(C)c5o4)c(F)c3)c3c(N)ncnc32)CC1` (configuration not stated) the Ki [20] was 0.126 µM (active) and the Ki [21] was 0.00794 µM (active).
For `CC(CNc1ccccc1Cl)C(=O)O` (configuration not stated), the EC50 [22] was > 100 µM (inactive).
